Assays:
[1] = system: B.1.617.2 (delta) SARS-CoV-2pp; experiment: microbe, parasite or virus in culture; type: cell-based; conditions: Severe acute respiratory syndrome coronavirus 2, HEK293, 48 h, read-out: EC50 B.1.617.2 (delta) SARS-CoV-2pp
[2] = Pharmacokinetics analysis in mice; conditions: C57 Bl/6, mouse, plasma, po
SARS-CoV-2pp = experiment: microbe, parasite or virus in culture; type: cell-based; conditions: for EC50: Severe acute respiratory syndrome coronavirus 2, HEK293, 48 h, read-out: EC50 SARS-CoV-2pp; for IC50: Severe acute respiratory syndrome coronavirus 2, HEK293, read-out: IC50, inhibition of SARS-CoV-2pp infection of HEK-293-hACE2 cells
BA.2 SARS-CoV-2pp = experiment: microbe, parasite or virus in culture; type: cell-based; conditions: Severe acute respiratory syndrome coronavirus 2, HEK293, 48 h, read-out: EC50 BA.2 SARS-CoV-2pp
SARS-CoV-1pp = experiment: microbe, parasite or virus in culture; type: cell-based; conditions: Severe acute respiratory syndrome coronavirus, HEK293, 48 h, read-out: EC50 SARS-CoV-1pp
[3] = system: B.1.1.529 (omicron) SARS-CoV-2pp; experiment: microbe, parasite or virus in culture; type: cell-based; conditions: Severe acute respiratory syndrome coronavirus 2, HEK293, 48 h, read-out: EC50 B.1.1.529 (omicron) SARS-CoV-2pp
[4] = system: B.1.1.7 (alpha) SARS-CoV-2pp; experiment: microbe, parasite or virus in culture; type: cell-based; conditions: Severe acute respiratory syndrome coronavirus 2, HEK293, 48 h, read-out: EC50 B.1.1.7 (alpha) SARS-CoV-2pp
[5] = system: SARS CoV-2 2019-nCoV/USA-WA1/2020; experiment: Efficacy in SARS-CoV2 infected K18-hACE2 mice (lung viral load by plaque assay); type: in vivo; conditions: 2 h before and 24 h after infection, 3 days post-infection; for effect on SARS-CoV2 viral load in lung homogenates: 100 mg/kg p.o. at 24 h before
[6] = system: B.1.1.28 (gamma) SARS-CoV-2pp; experiment: microbe, parasite or virus in culture; type: cell-based; conditions: Severe acute respiratory syndrome coronavirus 2, HEK293, 48 h, read-out: EC50 B.1.1.28 (gamma) SARS-CoV-2pp
[7] = system: B.1.351 (beta) SARS-CoV-2pp; experiment: microbe, parasite or virus in culture; type: cell-based; conditions: Severe acute respiratory syndrome coronavirus 2, HEK293, 48 h, read-out: EC50 B.1.351 (beta) SARS-CoV-2pp
MERSpp = experiment: microbe, parasite or virus in culture; type: cell-based, MERS; conditions: Middle East respiratory syndrome-related coronavirus, HeLa, 48 h, read-out: EC50 MERSpp
AXL kinase = target: T1, AXL kinase (Homo sapiens, UniProt P30530); experiment: AXL kinase assay (Reaction Biology Hot Spot, 33P-ATP); type: biochemical
T1 construct: purchased Reaction Biology
T1 sequence (P30530 26-894): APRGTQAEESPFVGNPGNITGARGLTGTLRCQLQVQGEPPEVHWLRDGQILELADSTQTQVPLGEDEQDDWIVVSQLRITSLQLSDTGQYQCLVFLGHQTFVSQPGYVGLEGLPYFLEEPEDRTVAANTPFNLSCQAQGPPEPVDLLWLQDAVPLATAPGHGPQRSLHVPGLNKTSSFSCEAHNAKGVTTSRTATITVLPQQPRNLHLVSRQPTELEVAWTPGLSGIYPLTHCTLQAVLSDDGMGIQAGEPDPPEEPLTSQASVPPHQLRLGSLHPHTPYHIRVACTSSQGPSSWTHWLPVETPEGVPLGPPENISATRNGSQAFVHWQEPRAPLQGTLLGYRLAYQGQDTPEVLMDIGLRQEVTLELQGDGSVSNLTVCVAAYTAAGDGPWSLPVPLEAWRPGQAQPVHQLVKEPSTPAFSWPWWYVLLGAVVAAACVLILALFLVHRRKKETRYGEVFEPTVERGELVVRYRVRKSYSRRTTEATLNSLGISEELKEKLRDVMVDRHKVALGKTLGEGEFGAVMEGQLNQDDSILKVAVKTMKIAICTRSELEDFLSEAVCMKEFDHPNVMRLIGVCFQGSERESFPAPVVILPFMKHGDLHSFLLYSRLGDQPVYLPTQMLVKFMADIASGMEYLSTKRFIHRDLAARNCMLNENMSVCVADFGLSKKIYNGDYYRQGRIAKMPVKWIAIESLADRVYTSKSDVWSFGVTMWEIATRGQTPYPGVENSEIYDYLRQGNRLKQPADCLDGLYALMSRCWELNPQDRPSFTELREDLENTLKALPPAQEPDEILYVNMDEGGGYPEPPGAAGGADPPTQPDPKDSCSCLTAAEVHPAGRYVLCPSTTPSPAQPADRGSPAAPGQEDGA

A549 cells [8] = experiment: A549 cell vacuolization analysis (phase contrast); conditions: 5 µM, 24 h
A549 cells [9] = experiment: A549 cell phospholipidosis (NBD-PE staining assay); conditions: 24 h, dose-range; amiodarone positive control
SARS-CoV-2 [10] = experiment: microbe, parasite or virus in culture; type: cell-based; conditions: Severe acute respiratory syndrome coronavirus 2, A549, read-out: IC50, inhibition of SARS-CoV-2 infection of A549-hACE2 cells
COVID-19 = conditions: Phase 2 clinical trial; ref BerGenBio, 2022; cited from earlier work
SARS-CoV-2 [11] = conditions: ref Dittmar et al., 2021; cited from earlier work

## FC(F)(F)c1nc(Nc2ccc3c(c2)CCC(N2CCCC2)CC3)n(-c2cc3c(nn2)-c2ccccc2CCC3)n1 (centres unmarked) [WYS-694]
[1]
  EC50: 130 ± 90 nM
[2]; 30 mg/kg
  AUC: 10700 ng·h/mL
  Cmax: 556 ng/mL
  Tmax: 24 h
SARS-CoV-2pp
  fold more potent than WYS-633 in inhibiting viral entry: 12.5 fold
  EC50: 80 ± 30 nM
BA.2 SARS-CoV-2pp
  EC50: 450 ± 440 nM
SARS-CoV-1pp
  EC50: 820 ± 1020 nM
[3]
  EC50: 130 ± 120 nM
[4]
  EC50: 120 ± 70 nM
[5]; 30 mg/kg p.o. at 24 h before
  reduction of SARS-CoV-2 viral load in lung homogenates: more than 4 fold
[6]
  EC50: 160 ± 150 nM
[7]
  EC50: 180 ± 110 nM

## c1ccc2c(c1)CCCc1cc(-c3nnc(Nc4ccc5c(c4)CCC(N4CCCC4)CC5)o3)nnc1-2 (centres unmarked) [WYS-633]
[1]
  EC50: 1050 ± 370 nM
[2]; 100 mg/kg
  AUC: 7920 ng·h/mL
  Cmax: 950 ng/mL
  Tmax: 2 h
MERSpp
  EC50: 310 ± 120 nM
SARS-CoV-2pp
  EC50: 2520 ± 2260 nM
  IC50: 2.52 µM
AXL kinase
  activity against AXL kinase (in words): inactive
BA.2 SARS-CoV-2pp
  EC50: 680 ± 290 nM
SARS-CoV-1pp
  EC50: 750 ± 70 nM
A549 cells [8]
  vacuolization in human lung A549 cells: did not
[3]
  EC50: 1030 ± 650 nM
A549 cells [9]
  phospholipidosis in A549 cells (NBD-PE staining): neither compound demonstrated phospholipidosis
[4]
  EC50: 1230 ± 580 nM
[5]
  effect on SARS-CoV2 viral load in lung homogenates: failed to reduce SARS-CoV2 viral load
[6]
  EC50: 1660 ± 710 nM
SARS-CoV-2 [10]
  IC50: 610 nM
[7]
  EC50: 1250 ± 50 nM

## Nc1nc(Nc2ccc3c(c2)CC[C@@H](N2CCCC2)CC3)nn1-c1cc2c(nn1)-c1ccccc1CCC2 [Bemcentinib, bemcentinib, reference compound]
[1]
  EC50: 380 ± 140 nM
[2]; 100 mg/kg
  AUC: 33300 ng·h/mL
  Cmax: 1760 ng/mL
  Tmax: 13 h
COVID-19
  clinical response in patients hospitalized with COVID-19: improved clinical response and key secondary endpoints
MERSpp
  EC50: 90 ± 10 nM
SARS-CoV-2pp
  EC50: 5680 ± 3760 nM
  IC50: 5.7 µM
BA.2 SARS-CoV-2pp
  EC50: 160 ± 30 nM
SARS-CoV-1pp
  EC50: 910 ± 10 nM
A549 cells [8]
  vacuolization in human lung A549 cells: induced significant vacuolization
[3]
  EC50: 210 ± 10 nM
A549 cells [9]
  phospholipidosis in A549 cells (NBD-PE staining): neither compound demonstrated phospholipidosis
[4]
  EC50: 430 ± 180 nM
[5]
  effect on SARS-CoV2 viral load in lung homogenates: failed to reduce SARS-CoV2 viral load
[6]
  EC50: 420 ± 120 nM
SARS-CoV-2 [10]
  IC50: 70 nM
SARS-CoV-2 [11]
  inhibition of SARS-CoV-2 infection of human lung Calu-3 cells: inhibits SARS-CoV-2 infection of human lung Calu-3 cells
[7]
  EC50: 390 ± 140 nM

From article PMC12119275 (Frontiers in Molecular Biosciences, 2025)
